According to PubChem BioAssay AID179 (DTP/NCI, 2004):
The source made the active and inactive calls.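 Rule for the calls: active = compounds giving half or more protection of infected cells from virus-caused growth loss, again on retest; inactive = the rest.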 Where a SMILES comes first, the peptide text is derived from it. [ ]: non-standard residue; d: D form. The star is where a group is joined. ξ: configuration not given here. Boc = CC(C)(C)OC(=O)*; ξV = CC(C)C(N)C(=O)O; OBn = c1ccc(CO*)cc1

System: CEM cells HIV-1 protection, formazan growth assay
Assay: NCI AIDS Antiviral Assay
Conditions: for IC50: measured here: growth of uninfected CEM cells
Procedure: The ability of compounds to protect human CEM cells from HIV-1 infection is measured as a screen for new compounds capable of inhibiting the HIV virus. Five concentrations of drug were tested on uninfected and infected cells and cell growth was measured using a soluble formazan assay. […] Compounds that provided at least 50% protection were retested. Compounds that provided at least 50% protection on retest were listed as moderately active. Compounds that reproducibly provided 100% protection were listed as confirmed active. […] Note that the inability to provide protection could be due to toxicity.

| SMILES | EC50 [µM] | IC50 [µM] | outcome |
| --- | --- | --- | --- |
| N#CC(C(=O)CCC(=O)Nc1cccc(Cl)c1)c1ccccc1 (stereo not drawn) | > 759 | > 759 | – |
| CC(C)/C(Cl)=N/OC(=O)Nc1ccc(OC(F)(F)F)cc1 | > 200 | 10.5 | – |
| O=C(Nc1nccs1)Nc1cc(C(F)(F)F)ccc1Cl | > 200 | > 200 | – |
| COc1c(C(=O)CC2c3c(cc4oc(C)cc(=O)c4c3OC)OC(=N)C2c2nc3ccccc3[nH]2)c(O)c(OC)c2occc12 (stereo not drawn) | 25.1 | 49 | – |
| COP(=O)(OC)/C(C#N)=C/c1ccco1 | > 1100 | 832 | – |
| Cc1ccc(S(=O)(=O)n2cc(/C=C/C#N)c(/C=C/C#N)c2)cc1 | – | – | inactive |
| CC1(C)CCCC2(C)C1CCC1(C)OC3=CC(=O)C(O)=CC3=CC12 (stereo not drawn) | > 30.2 | 2.82 | – |
| CCOC(=O)c1[nH]c2ccccc2c1C(=O)C[C@H](NC(=O)C(F)(F)F)C(=O)OC | > 200 | > 200 | – |
| CC(C)c1cc(OCC(O)CO)cc(C(C)C)c1 (stereo not drawn) | > 141 | > 141 | – |
| NC12CCC(CC1=O)C2 (stereo not drawn) | > 200 | > 200 | – |
| Cc1cc(N(CCC#N)CCC#N)ccc1/C=C\C(=O)Nc1ccccc1 | > 692 | > 692 | – |
| CC(=O)Nc1ccc(/C=C2\SC(=S)N(/C=C(/C#N)S(=O)(=O)c3ccc(C)cc3)C2=O)cc1 | > 200 | 74.1 | – |
| CN(C)CC1CC(=O)C(CN(C)C)CC1=O (stereo not drawn) | > 832 | 2.51 | – |
| COc1cccc2c1-c1nc(N)c3c(OC)cccc3c1C2=O | 74.1 | > 200 | – |
| O=c1[nH]cnc2c1ncn2[C@H]1CO[C@@H](CO)[C@@H]1O | > 100 | > 100 | – |
| O=[N+]([O-])c1c(F)c(F)c2c(c1F)Nc1ccccc1S2 | > 200 | 3.02 | – |
| C=CS(=O)(=O)O | > 200 | > 200 | – |
| CC1(C)CCC[C@]2(C)c3occc3CCC12 (stereo partly drawn) | – | – | inactive |
| O=C1CN(CCN2CCCCC2)CC(=O)N2Cc3ccccc3CN12 | > 200 | > 200 | – |
| C(=Nc1ccccc1)c1ccc(C=Nc2ccccc2)cc1 | > 3.63 | > 3.63 | – |
| N#C/C(=C1\N=C(c2ccccc2O)Oc2ccccc21)c1ccc([N+](=O)[O-])cc1 | > 100 | > 100 | – |
| CN(C)CC(/C(Cc1ccccc1)=N\NC(=O)C[n+]1ccccc1)c1ccccc1 (stereo not drawn) | > 295 | 138 | – |

| SMILES | EC50 [µM] | IC50 [µM] | outcome |
| --- | --- | --- | --- |
| COc1ccc(N=Cc2cc(OC)c(OC)c(OC)c2)cc1 | > 33.1 | > 33.1 | – |
| CCCCOP(=O)(/C=C\c1ccccn1)OCCCC | > 120 | > 120 | – |
| OC1CN2CCS[C@H]2C(O)C1O (stereo partly drawn) | > 200 | > 200 | – |
| CO[C@@]1(c2ccccc2)O[C@H]2OCCC2[C@H]1c1ccc(Cl)cc1 (stereo partly drawn) | > 11.5 | > 11.5 | – |
| CC(=O)N1CCN(CCCCN2c3ccccc3Sc3cc(N=[N+]=[N-])ccc32)CC1 | > 200 | 6.61 | – |
| O=c1[nH]cnc2c1sc(=S)n2-c1ccccc1 | > 100 | 70.8 | – |
| CC(C)OP(=O)(OC(C)C)/C(N)=N/Nc1ccc([N+](=O)[O-])cc1 | > 195 | > 100 | – |
| CCOC(=O)C1C(=O)CC(O)(c2ccccc2)C(C(=O)OCC)C1c1ccc(OC)cc1 (stereo not drawn) | > 200 | 5.01 | – |
| CCOC(=O)/C(=C\c1ccc(OC)cc1)C(C)=O | > 275 | 117 | – |
| O=S1(=O)CCC(Br)c2ccccc2C1 (stereo not drawn) | > 200 | > 200 | – |
| O=C(O)c1cc2c3c(c1)[C@H]1C=CC[C@H]1CN3CC1CC=CC21 (stereo partly drawn) | – | – | inactive |
| COc1cc2c(cc1OC)C(OC)N(C)c1c-2ccc2cc3c(cc12)OCO3 (stereo not drawn) | > 20 | 0.309 | – |
| CC1(C)OC(=S)N(c2ccccc2)C12C=Cc1cc3ccccc3nc1S2 (stereo not drawn) | > 3.72 | 3.31 | – |
| Cn1ccc(C(=O)NCCN(CCNC(=O)c2ccn(C)c(=O)c2O)CCNC(=O)c2ccn(C)c(=O)c2O)c(O)c1=O | > 200 | > 200 | – |
| CC(=O)C1=C(C)NC(C)=C(C(C)=O)C1c1cccc([N+](=O)[O-])c1 | 182 | > 200 | – |
| Cc1ccc(-n2c(N)c(C#N)c3[nH]nc(N)c3c2=O)cc1 | > 200 | > 200 | – |
| CC1C2CC(C(S(=O)(=O)N3CCOCC3)/C2=N\O)C1(C)C (stereo not drawn) | > 200 | 195 | – |
| O=CCc1c2c(nc3ccccc13)C(=O)c1ccccc1C2=O | > 20 | 7.94 | – |
| CN(C)CCC(/C=C/c1ccccc1)=N\Nc1ccc(Cl)cc1 | > 100 | 10.7 | – |
| CC(=O)[O-].CC(=O)[O-].O=C(N/N=C/c1cc(Cl)cc(Cl)c1O)c1ccncc1.[Cu+2] | – | – | inactive |
| O=c1c([Se]c2coc3ccccc3c2=O)coc2ccccc12 | > 10.2 | > 10.2 | – |
| N#CCCC(C#N)(CCC#N)c1ccccc1 | > 813 | > 813 | – |

| SMILES | EC50 [µM] | IC50 [µM] | outcome |
| --- | --- | --- | --- |
| CCCCN=C(NCCCC)OC1CCCCC1 | > 200 | 64.6 | – |
| COC1=CC(=O)[C@]2(C)[C@H](C1=O)C(C)[C@H]2c1ccccc1 (stereo partly drawn) | > 95.5 | > 95.5 | – |
| Cc1cc2nc(-c3ccccc3[N+](=O)[O-])[nH]c2cc1C | – | – | inactive |
| CC(=O)OC1(C)C=C/C(=N\S(=O)(=O)c2ccc(C)cc2)c2ccccc21 (stereo not drawn) | > 200 | 9.33 | – |
| CC1CCC(=O)C(C(=O)CC2CC(=O)NC(=O)C2)C1 (stereo not drawn) | > 200 | > 200 | – |
| CCOC(=O)C(c1ccccc1)c1cccc(C(C(=O)OCC)c2ccccc2)n1 (stereo not drawn) | > 17.8 | > 17.8 | – |
| CC1(C)OC(=O)C(Cc2ccccc2)(Cc2ccccc2)C(=O)O1 | – | – | inactive |
| N=c1n(CC(=O)NC23CC4CC(CC(C4)C2)C3)c2ccccc2n1CC(=O)NC12CC3CC(CC(C3)C1)C2 | > 200 | 3.72 | – |
| Cc1cc(Cl)ccc1NC(=O)C(=O)C(C(=O)c1ccc2ccccc2c1)C1OC(=O)c2ccccc21 (stereo not drawn) | > 52.5 | 25.1 | – |
| Cc1cc(C)c2c(n1)sc1c(=O)n(N)c(C)nc12 | – | – | inactive |
| O=C1CC(c2ccc(Cl)cc2)NC(=O)N1CCCl (stereo not drawn) | > 200 | > 200 | – |
| N#CCCN(CCC#N)c1ccc(/C=C2\CC(O)(c3ccccc3)NC2=O)cc1 (stereo not drawn) | > 7.08 | > 7.08 | – |
| Cn1c(=O)cc(NNc2ccc(Br)cc2)[nH]c1=O | > 200 | 6.17 | – |
| NC(=O)CCCC(NCc1c2ccccc2nc2ccccc12)C(=O)O (stereo not drawn) | – | – | inactive |
| Cc1nc(Nc2ccc(Cl)cc2)sc1C(=O)NNC(=S)NN | > 83.2 | 33.1 | – |
| Cc1oc2c(c(=O)c1C)CN(Cc1ccccc1)CC2 | > 331 | 275 | – |
| CN(C(=O)C12C3C4C1C1C2C3C41C(=O)O)C(C)(C)C (stereo not drawn) | – | – | inactive |
| O=[N+]([O-])/C=C/c1cn(CCCCCn2cc(/C=C/[N+](=O)[O-])c3ccccc32)c2ccccc12 | > 200 | 2.63 | – |
| CC(C)C(NC(=O)OC(C)(C)C)C(=O)NCC(=O)OCc1ccccc1 (stereo not drawn) (Boc-[ξV]-Gly-OBn) | > 200 | 28.2 | – |
| CC1OC(OC2C(O)COC(OC3C(C)OC(OC4C(OC(=O)[C@]56CCC(C)(C)C[C@@H]5C5=CCC7[C@@]8(C)C[C@H](O)[C@H](OC9OC(CO)C(O)C(OC%10OC(CO)C(O)C(O)C%10O)C9O)[C@@](C)(CO)[C@@H]8CC[C@@]7(C)[C@]5(C)CC6)OCC(O)C4O)C(O)C3OC3OCC(O)(CO)C3O)C2O)C(O)C(O)C1O (stereo partly drawn) | > 19.1 | 12.3 | – |
| O=[N+]([O-])c1ccc(N=P(c2ccccc2)(c2ccccc2)c2ccccc2)n2nnnc12 | – | – | inactive |
| COC1C=CC(C(=O)[N+]2=Cc3[nH]c4ccccc4c3CC2)O1 (stereo not drawn) | > 251 | 85.1 | – |

| SMILES | EC50 [µM] | IC50 [µM] | outcome |
| --- | --- | --- | --- |
| Nc1ccc(N=Nc2ccc(/C=C/c3ccc(N=Nc4ccc(N)c5cc(S(=O)(=O)O)ccc45)cc3S(=O)(=O)O)c(S(=O)(=O)O)c2)c2ccc(S(=O)(=O)O)cc12 | > 107 | 30.2 | – |
| N#C/C(=C\NC(=S)C(N)=S)c1nc2ccccc2s1 | > 200 | 5.75 | – |
| CSC1(C)CC2C(CC1N1CCOCC1)C2(C)C (stereo not drawn) | > 95.5 | > 95.5 | – |
| O=C(CN1CCNCCN(CC(=O)N2CCCCC2)CCNCC1)N1CCCCC1 | > 200 | 10.5 | – |
| Cc1c(C(=O)O)n2c(C)nnc2c2ccccc12 | > 200 | > 200 | – |
| O=C(O)CN1C=C(C(=O)c2cc3ccccc3n2S(=O)(=O)c2ccccc2)CCC1 | > 200 | 89.1 | – |
| C=CCC(=S)NCCc1c[nH]c2ccccc12 | > 200 | 120 | – |
| O=C1c2cccn2-c2ccccc2OC1c1ccc(NC(=S)Nc2ccc(Cl)cn2)cc1 (stereo not drawn) | > 200 | 15.8 | – |
| O=c1[nH]c2ccc([N+](=O)[O-])cc2nc1/C=C(\O)c1ccccc1 | > 200 | > 200 | – |
| C=CCCC12CCCC(=O)C1Sc1ccc3ccccc3c12 (stereo not drawn) | > 12.3 | > 12.3 | – |
| O=c1[nH]cnc2c1ncn2C1C=CC(CO)CC1 (stereo not drawn) | > 200 | > 200 | – |
| O=C1NC2OC(C(O)CO)C(O)C2O1 (stereo not drawn) | > 200 | > 200 | – |
| COc1cc(C2c3c(ccc4ccccc34)C(=O)C3CCC(=O)N32)cc(OC)c1O (stereo not drawn) | > 25.1 | 1.29 | – |
| O=C1COC(C(=O)c2ccccc2)C(=O)N1 (stereo not drawn) | > 117 | > 117 | – |
| COP(=O)(N/N=C/C(=O)O)OC | > 1260 | > 1260 | – |
| Cc1ccccc1NC(=O)C(=O)C1CN(c2ccccc2)N=C1N (stereo not drawn) | > 209 | > 209 | – |
| Cc1nc2nnc(CCCCCCCCc3nnc4nc(C)[nH]n34)n2[nH]1 | 135 | 174 | – |
| C1=Cc2ccccc2/C1=C/c1ccc2c(c1)OCO2 | > 20.9 | 12.3 | – |
| CC1(C)CNC[C@](C)(OCc2ccccc2)N1 | > 200 | > 200 | – |
| CCCC(O)C(=O)C(CCC)N(CC)CC (stereo not drawn) | > 1100 | > 1100 | – |
| Nc1c(-c2nc3ccccc3s2)[n+]([O-])c2ccccc2[n+]1[O-] | – | – | inactive |
